Measurements taken from ChEMBL document CHEMBL5356956, “Optimizing and characterizing 4-methyl substituted pyrazol-3-carboxamides leading to the peripheral cannabinoid 1 receptor inverse agonist TM38837” (Bioorg Med Chem Lett, 2024).
≈ marks a conversion by molar mass, not a printed value.

Experiments:
[1] = Lipophilicity, logD of compound by chromatographic analysis; format: physicochemical
Cannabinoid receptor 1 [2] = target: T1, Cannabinoid receptor 1 (Homo sapiens, UniProt P21554); assay: Inverse agonist activity at human CB1 receptor expressed in CHO-K1 cell membrane by GTP-gamma-S assay; format: functional, cell membranes
T1 sequence (P21554 whole entry): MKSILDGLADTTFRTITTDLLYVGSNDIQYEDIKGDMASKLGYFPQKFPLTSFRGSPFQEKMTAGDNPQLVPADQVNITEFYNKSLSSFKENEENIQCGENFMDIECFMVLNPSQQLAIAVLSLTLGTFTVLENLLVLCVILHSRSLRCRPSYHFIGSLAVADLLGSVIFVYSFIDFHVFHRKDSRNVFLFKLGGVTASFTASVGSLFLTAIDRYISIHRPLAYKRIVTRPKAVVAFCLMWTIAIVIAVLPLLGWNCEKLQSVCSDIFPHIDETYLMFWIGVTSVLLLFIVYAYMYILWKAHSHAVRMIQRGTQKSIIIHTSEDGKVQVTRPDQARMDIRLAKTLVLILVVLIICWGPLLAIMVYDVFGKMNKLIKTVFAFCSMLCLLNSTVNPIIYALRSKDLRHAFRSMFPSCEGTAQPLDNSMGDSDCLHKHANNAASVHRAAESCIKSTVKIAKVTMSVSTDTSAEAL

[3] = Solubility of compound; format: physicochemical
Cannabinoid receptor 1 [4] = target: T1, Cannabinoid receptor 1; assay: Inverse agonist activity at human CB1 receptor expressed in African green monkey COS7 cells co-expressing G-protein in presence of CP55940 by IP3 assay; format: functional, cell membranes, Membrane
[5] = Clearance in rat hepatocytes assessed per million cells; format: ADME, cell-based, Hepatocyte
CYP2C9 = CYP2C9 (Homo sapiens, UniProt P11712); assay: Inhibition of CYP2C9 (unknown origin) at 10 uM relative to control; format: ADME
Sequence of CYP2C9 (P11712 whole entry): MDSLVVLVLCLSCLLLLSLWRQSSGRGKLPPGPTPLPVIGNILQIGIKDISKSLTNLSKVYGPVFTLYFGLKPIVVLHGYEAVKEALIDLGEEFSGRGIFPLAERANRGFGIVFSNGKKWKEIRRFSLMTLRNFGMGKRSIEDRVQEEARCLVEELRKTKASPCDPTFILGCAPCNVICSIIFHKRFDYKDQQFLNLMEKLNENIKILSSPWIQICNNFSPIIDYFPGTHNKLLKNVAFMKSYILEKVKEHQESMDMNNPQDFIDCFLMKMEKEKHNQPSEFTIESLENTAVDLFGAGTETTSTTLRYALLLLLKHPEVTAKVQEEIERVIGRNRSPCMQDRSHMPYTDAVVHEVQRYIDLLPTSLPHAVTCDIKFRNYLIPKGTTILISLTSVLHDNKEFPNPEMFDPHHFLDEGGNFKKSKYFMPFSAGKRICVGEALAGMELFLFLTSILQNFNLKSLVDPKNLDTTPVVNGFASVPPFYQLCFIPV

[6] = Subchronic toxicity in DIO mouse assessed as reduction in body weight at 10 mg/kg, po measured after 7 days; format: organism-based; parameters: scale not given: the % may be the effect or the level left; settings: in vivo, 168 h, time 7 day
Cannabinoid receptor 2 = Cannabinoid receptor 2 (Homo sapiens, UniProt P34972); assay: Inverse agonist activity at human CB2 receptor expressed in CHO-K1 cell membrane in presence of CP55940 by GTP-gamma-S assay; format: functional, cell membranes
Sequence of Cannabinoid receptor 2 (P34972 whole entry): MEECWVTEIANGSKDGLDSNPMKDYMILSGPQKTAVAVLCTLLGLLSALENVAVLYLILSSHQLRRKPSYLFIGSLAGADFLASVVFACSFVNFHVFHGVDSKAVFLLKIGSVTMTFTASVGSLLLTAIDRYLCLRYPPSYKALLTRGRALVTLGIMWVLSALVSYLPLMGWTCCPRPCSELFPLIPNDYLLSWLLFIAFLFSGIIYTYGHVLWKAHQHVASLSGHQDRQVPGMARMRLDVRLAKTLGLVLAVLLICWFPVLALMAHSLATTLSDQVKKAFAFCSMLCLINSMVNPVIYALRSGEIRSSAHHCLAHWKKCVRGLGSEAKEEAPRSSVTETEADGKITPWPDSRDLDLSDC

Cannabinoid receptor 1 [7] = target: T1, Cannabinoid receptor 1; assay: Antagonist activity at human CB1 receptor expressed in CHO-K1 cell membrane in presence of CP55940 by GTP-gamma-S assay; format: functional, cell membranes

SMILES | chromatographic logD [1] | IC50 (Cannabinoid receptor 1 [2]) | solubility [3] | IC50 (Cannabinoid receptor 1 [4]) | CLH [5] | inhibition at 10 µM (CYP2C9) | Activity [6] | IC50 (Cannabinoid receptor 2) | IC50 (Cannabinoid receptor 1 [7])
O=C(c1nn(-c2ccccc2Cl)c(-c2ccc(Cl)cc2)c1Cc1nn[nH]n1)N1CCC(Oc2cc(F)cc(F)c2)CC1 | 2.6 | 69 nM | 317 µM (≈ 194 µg/mL) | 23 nM | 16 µL/min/1e6 cells | 32% |  |  | 
N#Cc1ccc(C2(O)CCN(C(=O)c3nn(-c4ccccc4Cl)c(-c4ccc(Cl)cc4)c3CC(N)=O)CC2)cc1 | 2.5 | 0.7 nM | 73 µM (≈ 41.9 µg/mL) |  |  |  |  |  | 
O=C(c1nn(-c2ccccc2Cl)c(-c2ccc(Cl)cc2)c1Cc1nn[nH]n1)N1CCC(Oc2ccc(OC(F)(F)F)cc2)CC1 | 3 | 64 nM | 115 µM (≈ 75.7 µg/mL) | 26 nM | 14 µL/min/1e6 cells | 48% |  |  | 
O=C(c1nn(-c2ccccc2Cl)c(-c2ccc(Cl)cc2)c1Cc1nn[nH]n1)N1CCC(Oc2cccc(F)c2)CC1 | 2.4 | 130 nM | 500 µM (≈ 296 µg/mL) | 33 nM | 45 µL/min/1e6 cells | 14% |  |  | 
NC(=O)Cc1c(C(=O)N2CCC(O)(c3cccc(F)c3)CC2)nn(-c2ccccc2Cl)c1-c1ccc(Cl)cc1 | 2.8 | 0.5 nM | 62 µM (≈ 35.2 µg/mL) |  | 16 µL/min/1e6 cells |  |  |  | 
O=C(c1nn(-c2ccccc2Cl)c(-c2ccc(Cl)cc2)c1Cc1nn[nH]n1)N1CCC(c2ccccc2F)CC1 | 2.5 | 130 nM | 474 µM (≈ 273 µg/mL) | 23 nM | 33 µL/min/1e6 cells |  |  |  | 
C[C@@H]1C[C@](O)(c2cccc(F)c2)CCN1C(=O)c1nn(-c2ccccc2Cl)c(-c2ccc(Cl)cc2)c1CC(N)=O | 3 | 0.4 nM | 64 µM (≈ 37.2 µg/mL) |  | 24 µL/min/1e6 cells |  |  |  | 
CS(=O)(=O)N1CCC(NC(=O)c2nn(-c3ccccc3Cl)c(-c3ccc(Cl)cc3)c2CC(N)=O)CC1 | 2.4 | 9.5 nM | 61 µM (≈ 33.6 µg/mL) |  | 8 µL/min/1e6 cells |  |  |  | 
O=C(O)Cc1c(C(=O)N2CCC(Oc3cccc(F)c3)CC2)nn(-c2ccccc2Cl)c1-c1ccc(Cl)cc1 | 3.3 |  | 155 µM (≈ 88.1 µg/mL) | 15 nM |  |  | < 2% |  | 
CCN1C(=O)OC2(CCN(C(=O)c3nn(-c4ccccc4Cl)c(-c4ccc(Cl)cc4)c3CC(N)=O)CC2)C1=O | 2.7 | 1.3 nM | 28 µM (≈ 16 µg/mL) |  | 21 µL/min/1e6 cells |  |  |  | 
O=C(c1nn(-c2ccccc2Cl)c(-c2ccc(Cl)cc2)c1Cc1nn[nH]n1)N1CCC(Oc2cccc(Cl)c2)CC1 | 2.7 | 95 nM | 201 µM (≈ 122 µg/mL) | 24 nM | 15 µL/min/1e6 cells | 35% |  |  | 
NC(=O)Cc1c(C(=O)N2CCC(O)(c3ccccc3F)CC2)nn(-c2ccccc2Cl)c1-c1ccc(Cl)cc1 | 2.8 | 0.5 nM | 66 µM (≈ 37.5 µg/mL) |  |  |  |  |  | 
O=C(O)Cc1c(C(=O)N2CCC(c3cccc(F)c3)CC2)nn(-c2ccccc2Cl)c1-c1ccc(Cl)cc1 | 2.7 | 32 nM |  | 2.6 nM |  |  |  | > 10 µM | 8.1 nM
O=C(O)Cc1c(C(=O)N2CCC(Oc3cccc(F)c3F)CC2)nn(-c2ccccc2Cl)c1-c1ccc(Cl)cc1 | 2.5 |  | 500 µM (≈ 293 µg/mL) | 15 nM |  |  |  |  | 
N#Cc1cccc(C2(O)CCN(C(=O)c3nn(-c4ccccc4Cl)c(-c4ccc(Cl)cc4)c3CC(N)=O)CC2)c1 | 2.6 | 0.4 nM | 70 µM (≈ 40.2 µg/mL) |  |  |  |  |  | 
N#Cc1cccc(OC2CCN(C(=O)c3nn(-c4ccccc4Cl)c(-c4ccc(Cl)cc4)c3CC(=O)O)CC2)c1 | 3.3 |  | 107 µM (≈ 61.6 µg/mL) | 53 nM | 26 µL/min/1e6 cells |  |  |  | 
C[C@@H]1CC(O)(c2ccccc2F)C[C@H](C)N1C(=O)c1nn(-c2ccccc2Cl)c(-c2ccc(Cl)cc2)c1CC(N)=O (some centres undefined) | 3.6 | 0.7 nM | 29 µM (≈ 17.3 µg/mL) |  |  |  |  |  | 
O=C(O)Cc1c(C(=O)N2CCC(Oc3cccc(C(F)(F)F)c3)CC2)nn(-c2ccccc2Cl)c1-c1ccc(Cl)cc1 | 2.7 |  | 500 µM (≈ 309 µg/mL) | 24 nM | 35 µL/min/1e6 cells |  |  |  | 
O=C(O)Cc1c(C(=O)N2CCC(Oc3ccc(F)c(F)c3)CC2)nn(-c2ccccc2Cl)c1-c1ccc(Cl)cc1 | 2.9 |  | 500 µM (≈ 293 µg/mL) | 12 nM |  |  | < 2% |  | 
N#Cc1ccc(CNC(=O)c2nn(-c3ccccc3Cl)c(-c3ccc(Cl)cc3)c2CC(N)=O)cc1 | 2.9 | 0.3 nM | 16 µM (≈ 8.07 µg/mL) |  |  |  |  |  | 
O=C(O)Cc1c(C(=O)N2CCC(Oc3cc(F)cc(F)c3)CC2)nn(-c2ccccc2Cl)c1-c1ccc(Cl)cc1 | 3.2 |  | 171 µM (≈ 100 µg/mL) | 8 nM |  |  |  |  | 
O=C(O)Cc1c(C(=O)N2CCC(Oc3ccc(F)cc3)CC2)nn(-c2ccccc2Cl)c1-c1ccc(Cl)cc1 | 3.6 |  | 118 µM (≈ 67.1 µg/mL) | 6 nM |  |  |  |  | 

SMILES | chromatographic logD [1] | IC50 (Cannabinoid receptor 1 [2]) | solubility [3] | IC50 (Cannabinoid receptor 1 [4]) | CLH [5] | inhibition at 10 µM (CYP2C9) | Activity [6] | IC50 (Cannabinoid receptor 2) | IC50 (Cannabinoid receptor 1 [7])
O=C(O)Cc1c(C(=O)N2CCC(Oc3cccc(Cl)c3)CC2)nn(-c2ccccc2Cl)c1-c1ccc(Cl)cc1 | 2.8 | 51 nM |  | 10 nM | 32 µL/min/1e6 cells |  |  |  | 
C[C@@H](NC(=O)c1nn(-c2ccccc2Cl)c(-c2ccc(Cl)cc2)c1Cc1nn[nH]n1)c1ccc(Br)cc1 | 2.4 |  |  | 72 nM |  |  |  |  | 
N=C(Cc1c(C(=O)NN2CCCCC2)nn(-c2ccccc2Cl)c1-c1ccc(Cl)cc1)NO | 2.9 |  |  |  |  |  |  |  | 
O=C(c1nn(-c2ccccc2Cl)c(-c2ccc(Cl)cc2)c1Cc1nn[nH]n1)N1CCC(Oc2ccc(C(F)(F)F)cc2)CC1 | 2.9 | 120 nM | 140 µM (≈ 89.9 µg/mL) | 23 nM | 12 µL/min/1e6 cells |  |  |  | 
O=C(c1nn(-c2ccccc2Cl)c(-c2ccc(Cl)cc2)c1Cc1nn[nH]n1)N1CCC(Oc2ccc(Cl)cc2)CC1 | 2.6 | 47 nM | 204 µM (≈ 124 µg/mL) | 30 nM | 77 µL/min/1e6 cells | 38% |  |  | 
O=C(c1nn(-c2ccccc2Cl)c(-c2ccc(Cl)cc2)c1Cc1nn[nH]n1)N1CCC(Oc2ccc(F)c(F)c2)CC1 | 2.5 | 80 nM | 421 µM (≈ 257 µg/mL) | 35 nM | 45 µL/min/1e6 cells | 0% | < 2% |  | 
O=C(O)Cc1c(C(=O)N2CCC(Oc3ccc(Cl)cc3)CC2)nn(-c2ccccc2Cl)c1-c1ccc(Cl)cc1 | 2.7 | 30 nM |  | 11 nM | 7 µL/min/1e6 cells |  |  |  | 
C[C@@H]1CC(O)(c2cccc(F)c2)C[C@H](C)N1C(=O)c1nn(-c2ccccc2Cl)c(-c2ccc(Cl)cc2)c1CC(N)=O (some centres undefined) | 3.5 | 2.2 nM | 79 µM (≈ 47 µg/mL) |  |  |  |  |  | 
N=C(N)Cc1c(C(=O)Nc2ccc(F)cc2)nn(-c2ccccc2Cl)c1-c1ccc(Cl)cc1 | 2.5 |  |  |  |  |  |  | > 10 µM | 
NC(=O)Cc1c(C(=O)N2CCC(Oc3cccc(F)c3)CC2)nn(-c2ccccc2Cl)c1-c1ccc(Cl)cc1 | 3.7 | 0.3 nM | 9 µM (≈ 5.11 µg/mL) |  | 48 µL/min/1e6 cells |  |  |  | 
Cc1c(C(=O)NN2CCCCC2)nn(-c2ccc(Cl)cc2Cl)c1-c1ccc(Cl)cc1 [RIMONABANT] |  |  |  |  |  |  | 14.5% |  | 
O=C(O)Cc1c(C(=O)N2CCC(Oc3ccc(C(F)(F)F)cc3)CC2)nn(-c2ccccc2Cl)c1-c1ccc(Cl)cc1 | 3.1 |  | 374 µM (≈ 231 µg/mL) | 7 nM | 17 µL/min/1e6 cells |  |  |  | 
C[C@@H](NC(=O)c1nn(-c2ccccc2Cl)c(-c2ccc(Cl)cc2)c1CC(N)=O)c1ccc(C(F)(F)F)nc1 | 3.3 | 0.4 nM | 21 µM (≈ 11.8 µg/mL) |  | 6 µL/min/1e6 cells |  |  |  | 
O=C(c1nn(-c2ccccc2Cl)c(-c2ccc(Cl)cc2)c1Cc1nn[nH]n1)N1CCC(Oc2ccc(F)cc2)CC1 | 2.4 | 170 nM | 500 µM (≈ 296 µg/mL) | 41 nM | 13 µL/min/1e6 cells |  |  |  | 
O=C(O)Cc1c(C(=O)N2CCC(Oc3ccc(OC(F)(F)F)cc3)CC2)nn(-c2ccccc2Cl)c1-c1ccc(Cl)cc1 | 3.2 |  | 176 µM (≈ 112 µg/mL) | 10 nM |  |  |  |  | 
CC(C)c1noc(C2(O)CCN(C(=O)c3nn(-c4ccccc4Cl)c(-c4ccc(Cl)cc4)c3CC(N)=O)CC2)n1 | 3.2 | 0.6 nM | 4 µM (≈ 2.33 µg/mL) |  | 65 µL/min/1e6 cells |  |  |  | 
CC(C)S(=O)(=O)N1CCC(NC(=O)c2nn(-c3ccccc3Cl)c(-c3ccc(Cl)cc3)c2CC(N)=O)CC1 | 2.8 | 1.9 nM | 33 µM (≈ 19.1 µg/mL) |  | 17 µL/min/1e6 cells |  |  |  | 
C[C@@H](NC(=O)c1nn(-c2ccccc2Cl)c(-c2ccc(Cl)cc2)c1Cc1nn[nH]n1)c1ccc(F)c(Cl)c1 | 2.8 | 63 nM |  | 32 nM |  |  | 2.4% |  | 
O=C(O)Cc1c(C(=O)N2CCC(Oc3ccc(Cl)cc3F)CC2)nn(-c2ccccc2Cl)c1-c1ccc(Cl)cc1 | 3.4 |  | 83 µM (≈ 50 µg/mL) | 8 nM | 28 µL/min/1e6 cells |  |  |  | 
C[C@@H](NC(=O)c1nn(-c2ccccc2Cl)c(-c2ccc(Cl)cc2)c1Cc1nnn[nH]1)c1cccc(F)c1 | 2.1 | 86 nM |  | 64 nM |  |  | 5.2% |  | 
CC(=O)N1CCC(NC(=O)c2nn(-c3ccccc3Cl)c(-c3ccc(Cl)cc3)c2CC(N)=O)CC1 | 1.8 | 11 nM | 51 µM (≈ 26.2 µg/mL) |  | 4 µL/min/1e6 cells |  |  |  | 
O=C(c1nn(-c2ccccc2Cl)c(-c2ccc(Cl)cc2)c1Cc1nn[nH]n1)N1CCC(Oc2cccc(F)c2F)CC1 | 2.5 | 110 nM | 396 µM (≈ 242 µg/mL) | 61 nM | 14 µL/min/1e6 cells |  |  |  | 
